Measurements published in patent US8545841B2, “Methods and compositions for the treatment of cancers and pathogenic infections” (University of Florida Research Foundation, Inc., priority 2008, dated 2013).

How the values were obtained:
P. gingivalis = assay: Trafficking of P. gingivalis to lysosomes in human coronary arterial endothelial cells (HCAEC); type: cell-based, Porphyromonas gingivalis; conditions: HCAEC exposed to P. gingivalis; replicative vacuole in untreated cells
From the text: FIGS. 7A-7D. The inhibition of autophagy by AI-1 and AI-2 results in the trafficking of P. gingivalis to lysosomes. Human coronary arterial endothelial cells (HCAEC) were exposed to P. gingivalis (Pg) in the absence (FIG. 7A) and presence of 3-methyladenine (3MA) (FIG. 7B) and compounds AI-1 (FIG. 7C) and AI-2 (FIG. 7D).
We have previously shown that autophagy is required for P. gingivalis to thrive within host endothelial cells (Dorn, B. R., Dunn, W. A., Jr., and Progulske-Fox, A. “Porphyromonas gingivalis traffics to autophagosomes in human coronary artery endothelial cells” Infect Immun, 2001, Vol. 69, pp. 5698-5708). In fact, in the absence of autophagy, this bacterium fails to form a “replicative vacuole” and is instead transported to lysosomes where the bacterium is destroyed by digestive enzymes. We then tested the efficacy of AI-1 and AI-2 to promote the intracellular movements of this intracellular pathogen to the destructive lysosomes.

[1] = system: breast carcinoma MDA-MB468 cells; assay: Survival of nutrient-starved cells, crystal violet staining; type: cell-based; conditions: MDA-MB468, nutrient-deprived serum-free medium, 24 hours
Method: (§1) FIGS. 6A-B. Atg-4-targeted drugs decrease cell survival of nutrient deprived cancer cells. Control breast epithelial MCF10A, MDA-MB 468 breast carcinoma, Saos2 osteosarcoma, and HuH7 hepatoma were incubated under nutrient fed and starved conditions in the presence and absence of AI-1 and AI-2. The number of viable cells on the plate relative to fed after 24 hrs was quantified by crystal violet staining. Bars=mean±SEM, n=4-6 trials.
(§2) During the early stages of tumor growth prior to vascularization, cancer cells are exposed to conditions lacking nutrients and growth factors. These cells are able to survive these conditions by activating autophagy, thereby degrading endogenous macromolecules and recycling the nutrients. In order to simulate these conditions in vitro, we have incubated cells in the absence of amino acids and serum. Approximately 65-75% of the normal and cancer cell lines tested survived when exposed to nutrient-deprived serum-free medium for 24 hours.

[2] = system: normal breast epithelial cells (MCF10A); assay: as above; type: cell-based; conditions: nutrient-deprived serum-free medium, 24 hours
Method: as §1, §2

HuH7 hepatoma cells = assay: as above; type: cell-based; conditions: HuH7, nutrient-deprived serum-free medium, 24 hours
Method: as §1, §2

[3] = system: Saos-2 osteosarcoma cells; assay: as above; type: cell-based; conditions: Saos-2, nutrient-deprived serum-free medium, 24 hours
Method: as §1, §2

[4] = system: Saos-2 and MDA-MB468 cells; assay: Starvation induced (autophagy-mediated) protein degradation, pulse-chase with 14C-leucine; type: cell-based; conditions: starved cells, FIG. 4
Method: FIG. 4. Atg-4-targeted drugs suppress starvation induced (autophagy-mediated) protein degradation. Saos-2 and MDA-MB468 cells were incubated under nutrient fed and starved conditions in the presence and absence of 3-methyladenine (3MA), AI-1 and AI-2 and the rates of protein degradation measure by pulse-chase methodology with 14C-leucine. Bars=mean±SEM. n=4-6 trials. The Atg4 compounds were obtained from the National Cancer Institute (NCI) and then tested for their ability to suppress autophagy by observing the presence of autophagosomes in Saos-2 osteosarcoma and MDA-MB468 breast carcinoma cell lines stabling expressing Atg8 tagged with a green fluorescent protein (GFP-Atg8). Upon the onset of autophagy, Atg8 becomes lipidated being anchored to the autophagosome membrane whereby this protein then recruits additional membranes for expanding the size of the vacuoles and thus, regulating the degradative amplitude of autophagy. […] Compared to 70% of the starved cells containing autophagic vacuoles, less than 20% of those starved cells treated with AI-1 or AI-2 contained these vacuoles. These observations were consistent with the negative effects of these compounds on the lipidation of Atg8 (FIG. 3). Saos-2 cells expressing GFP-Atg8 were starved for amino acids for 2-6 h in the absence and presence of 3-methyladenine and the Atg4 compounds. […]

[5] = system: Saos-2 osteosarcoma and MDA-MB468 breast carcinoma cell lines; assay: GFP-Atg8 labeled autophagic vacuoles in nutrient-starved cells stably expressing GFP-Atg8; type: cell-based; conditions: starved Saos-2 cells, FIG. 2
Method: FIGS. 2A-2D. Atg-4-targeted drugs decreased the number of Atg8 (LC3)-labeled autophagic vacuoles. Saos-2 osteosarcoma and MDA-MB468 breast carcinoma cells stably expressing GFP-Atg8 were incubated under nutrient fed and starved (St) conditions in the presence and absence of AI-1 and AI-2. The presence GFP-Atg8 labeled autophagic vacuoles appear as dots (arrows) in starved Saos-2 cells (FIG. 2B). Atg8-labeled vacuoles are not observed in fed Saos-2 cells or starved cell treated with AI-1. Almost 70% of the starved cells contained autophagic vacuoles. However, the number of starved cells containing autophagic vacuoles was dramatically reduce upon treatment with AI-1 and AI-2 (FIG. 2D; n=number of cells counted). The Atg4 compounds were obtained from the National Cancer Institute (NCI) and then tested for their ability to suppress autophagy by observing the presence of autophagosomes in Saos-2 osteosarcoma and MDA-MB468 breast carcinoma cell lines stabling expressing Atg8 tagged with a green fluorescent protein (GFP-Atg8). Upon the onset of autophagy, Atg8 becomes lipidated being anchored to the autophagosome membrane whereby this protein then recruits additional membranes for expanding the size of the vacuoles and thus, regulating the degradative amplitude of autophagy. […]

Atg8 (LC3) = assay: Lipidation of Atg8 (Atg8-PE) by Western blotting in starved Saos-2 cells; type: cell-based; conditions: Saos-2 cells expressing GFP-Atg8 starved for amino acids for 2-6 h
From the text: (§3) FIG. 3. Atg-4-targeted compounds suppress the lipidation of Atg8 (LC3) in Saos-2 osteosarcoma cells. The lipidation of Atg8 (Atg8-PE) was examined by Western blotting in fed and starved (medium lacking amino acids and serum) cells and in starved cells treated with 3-methyladenine (3MA), AI-1 and AI-2. The Atg4 compounds were obtained from the National Cancer Institute (NCI) and then tested for their ability to suppress autophagy by observing the presence of autophagosomes in Saos-2 osteosarcoma and MDA-MB468 breast carcinoma cell lines stabling expressing Atg8 tagged with a green fluorescent protein (GFP-Atg8). Upon the onset of autophagy, Atg8 becomes lipidated being anchored to the autophagosome membrane whereby this protein then recruits additional membranes for expanding the size of the vacuoles and thus, regulating the degradative amplitude of autophagy. […] Compared to 70% of the starved cells containing autophagic vacuoles, less than 20% of those starved cells treated with AI-1 or AI-2 contained these vacuoles. These observations were consistent with the negative effects of these compounds on the lipidation of Atg8 (FIG. 3). Saos-2 cells expressing GFP-Atg8 were starved for amino acids for 2-6 h in the absence and presence of 3-methyladenine and the Atg4 compounds. […]

MDA-MB468 cells = assay: Size and distribution of autophagic vacuoles by electron microscopy; type: cell-based; conditions: starved MDA-MB468 cells
Method: FIGS. 5A-5D. Atg-4-targeted drugs reduce the size of autophagic vacuoles. MDA-MB468 cells were incubated under nutrient fed (FIG. 5A) and starved (medium lacking amino acids and serum; FIG. 5B) conditions in the presence and absence of AI-1 (FIG. 5C) and AI-2 (FIG. 5D), Autophagic vacuoles (arrows) were visualized by electron microscopy. The “black” reaction product of CMPase, a lysosomal enzyme, can be seen within small lysosomes, many larger autophagic vacuoles (arrows) as well as the Golgi apparatus (Go).
as §3, with “The” for “FIG. 3. Atg-4-targeted compounds suppress the lipidation of Atg8 (LC3) in Saos-2 osteosarcoma cells. The lipidation of Atg8 (Atg8-PE) was examined by Western blotting in fed and starved (medium lacking amino acids and serum) cells and in starved cells treated with 3-methyladenine (3MA), AI-1 and AI-2. The”, “3).” for “3). Saos-2 cells expressing GFP-Atg8 were starved for amino acids for 2-6 h in the absence and presence of 3-methyladenine and the Atg4 compounds.”

| SMILES | location and state of intracellular P. gingivalis (P. gingivalis) | survival of nutrient-starved cells [1] | survival of nutrient-starved cells [2] | survival of nutrient-starved cells (HuH7 hepatoma cells) | survival of nutrient-starved cells [3] | degradation of endogenous proteins [4] | Atg8-labeled vacuoles observed [5] | lipidation of Atg8 (Atg8-PE) (Atg8 (LC3)) | distribution of autophagic vacuoles (MDA-MB468 cells) |
| --- | --- | --- | --- | --- | --- | --- | --- | --- | --- |
| S=C(Nc1ccccn1)c1ccccn1 [AI-1, N-2-pyridinyl-2-pyridinecarbothioamide] | bacteria in various degraded states were observed in CMPase-positive lysosomes | less than 40% | only moderately affected | moderate activity | moderate activity | reduction in the degradation of endogenous proteins | not observed | inhibiting the lipidation of Atg8 (LC3) | – |
| Cn1cnc(N)c2ncnc1-2 [3-methyladenine, reference compound] | partially degraded bacteria were found in CMPase-positive lysosomes | – | – | – | – | – | – | – | – |
| CC(C)OC(=O)Nc1ccc2nc(-c3cscn3)[nH]c2c1 [AI-2, cambendazole] | bacteria in various degraded states were observed in CMPase-positive lysosomes | – | only moderately affected | 30 % of controls | – | reduction in the degradation of endogenous proteins | – | inhibiting the lipidation of Atg8 (LC3) | dramatic redistribution of the autophagic vacuoles to a centralized region of the cell |
